# From patent US8952024B2, “Herbicidal pyrimidone derivatives” (E I du Pont de Nemours and Company, priority 2009, dated 2015)
# Tests used:
# Assay type in all cases: in vivo
# [1] = tested on: Italian ryegrass (Lolium multiflorum); assay: Test B pre-/postemergence plant response
# How it was run: (§1)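 Seeds sown in loam–sand blend were treated preemergence, and plants at 2–18 cm (1- to 4-leaf stage) in peat-based medium were treated postemergence; compounds were formulated in non-phytotoxic solvent with surfactant. After 13–15 days in greenhouse, response was visually rated against controls, 0 (no effect) to 100 (complete control).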
# [2] = tested on: Surinam grass (Brachiaria decumbens); assay: Test B pre-/postemergence plant response
# How it was run: as §1
# [3] = tested on: bermudagrass (Cynodon dactylon); assay: Test B pre-/postemergence plant response
# How it was run: as §1
# [4] = tested on: blackgrass (Alopecurus myosuroides); assay: Test B pre-/postemergence plant response
# How it was run: as §1
# [5] = tested on: cocklebur (Xanthium strumarium); assay: Test B pre-/postemergence plant response
# How it was run: as §1
# corn (Zea mays) = assay: Test B pre-/postemergence plant response
# How it was run: as §1
# [6] = tested on: morningglory (Ipomoea coccinea); assay: Test B pre-/postemergence plant response
# How it was run: as §1
# [7] = tested on: ragweed (common ragweed, Ambrosia elatior); assay: Test B pre-/postemergence plant response
# How it was run: as §1
# soybean (Glycine max) = assay: Test B pre-/postemergence plant response
# How it was run: as §1
# [8] = tested on: barnyardgrass (Echinochloa crus-galli); assay: Test B flooded paddy test; settings: for Plant response rating, Flood, Barnyardgrass: 250 g ai/ha, flooded paddy test, visual rating on 0 to 100 scale (0 no effect, 100 complete control) after 13 to 15 days; for Plant response rating, Barnyardgrass: Flood (flooded paddy test), 13 to 15 days
# How it was run: (§2)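 Greenhouse-held for 13 to 15 days, treated pots were compared visually with controls and scored 0–100 (0, no effect). Treatment had been made into paddy water kept at 3 cm above the soil, with plants at the 2-leaf stage.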
# [9] = tested on: ducksalad (Heteranthera limosa); assay: Test B flooded paddy test; settings: for Plant response rating, Flood, Ducksalad: 250 g ai/ha, flooded paddy test, visual rating on 0 to 100 scale (0 no effect, 100 complete control) after 13 to 15 days; for Plant response rating, Ducksalad: Flood (flooded paddy test), 13 to 15 days
# How it was run: as §2
# rice (Oryza sativa) = assay: Test B flooded paddy test; settings: for Plant response rating, Flood, Rice: 250 g ai/ha, flooded paddy test, visual rating on 0 to 100 scale (0 no effect, 100 complete control) after 13 to 15 days; for Plant response rating, Rice: Flood (flooded paddy test), 13 to 15 days
# How it was run: as §2
# [10] = tested on: umbrella sedge (Cyperus difformis); assay: Test B flooded paddy test; settings: for Plant response rating, Flood, Sedge, Umbrella: 250 g ai/ha, flooded paddy test, visual rating on 0 to 100 scale (0 no effect, 100 complete control) after 13 to 15 days; for Plant response rating, Sedge, Umbrella: Flood (flooded paddy test), 13 to 15 days
# How it was run: as §2
# [11] = 31 g ai/ha, postemergence, scale 0 to 100, 0 is no effect, 100 is complete control
# [12] = Postemergence, 62 g ai/ha, scale 0 (no effect) to 100 (complete control), 13 to 15 days
# [13] = Postemergence, 125 g ai/ha, visual rating after 13 to 15 days, scale 0 (no effect) to 100 (complete control)
# [14] = Postemergence, 250 g ai/ha, scale 0 to 100 (0 no effect, 100 complete control)
# [15] = Preemergence, 31 g ai/ha, scale 0 to 100 (0 no effect, 100 complete control)
# [16] = Preemergence, 62 g ai/ha, scale 0 to 100 (0 no effect, 100 complete control)
# [17] = Preemergence, 125 g ai/ha, scale 0 to 100, 0 no effect, 100 complete control
# [18] = 250 g ai/ha, Preemergence, 0 to 100 scale
# [19] = 31 g ai/ha, scale of 0 to 100 where 0 is no effect and 100 is complete control
# [20] = 62 g ai/ha, scale of 0 to 100 where 0 is no effect and 100 is complete control
# [21] = 125 g ai/ha, scale 0 to 100, 0 is no effect, 100 is complete control
compound,measurement,setting,value
CCCCc1ncc(C(=O)C2=C(O)CCCC2=O)c(=O)n1-c1cccc(C)c1 [Compound 63],"Plant response rating, Ryegrass, Italian",[1]; [11],0
same,"Plant response rating, Ryegrass, Italian",[1]; [12],0
same,"Plant response rating, Ryegrass, Italian",[1]; [13],0
same,"Plant response rating, Ryegrass, Italian",[1]; [14],10
same,"Plant response rating, Ryegrass, Italian",[1]; [15],0
same,"Plant response rating, Ryegrass, Italian",[1]; [16],0
same,"Plant response rating, Ryegrass, Italian",[1]; [17],0
same,"Plant response rating, Surinam Grass",[2]; [11],10
same,"Plant response rating, Surinam Grass",[2]; [12],25
same,"Plant response rating, Surinam Grass",[2]; [13],35
same,"Plant response rating, Surinam Grass",[2]; [14],75
same,"Plant response rating, Surinam Grass",[2]; [15],0
same,"Plant response rating, Surinam Grass",[2]; [16],0
same,"Plant response rating, Surinam Grass",[2]; [17],55
same,"Plant response rating, Bermudagrass",[3]; [18],98
same,"Plant response rating, Bermudagrass",[3]; [12],85
same,"Plant response rating, Bermudagrass",[3]; [13],85
same,"Plant response rating, Bermudagrass",[3]; [14],95
same,"Plant response rating, Bermudagrass",[3]; [15],75
same,"Plant response rating, Bermudagrass",[3]; [16],98
same,"Plant response rating, Bermudagrass",[3]; [17],98
same,"Plant response rating, Blackgrass",[4]; [11],30
same,"Plant response rating, Blackgrass",[4]; [18],40
same,"Plant response rating, Blackgrass",[4]; [12],35
same,"Plant response rating, Blackgrass",[4]; [13],35
same,"Plant response rating, Blackgrass",[4]; [14],50
same,"Plant response rating, Blackgrass",[4]; [15],0
same,"Plant response rating, Blackgrass",[4]; [16],0
same,"Plant response rating, Blackgrass",[4]; [17],5
same,"Plant response rating, Cocklebur",[5]; [11],65
same,"Plant response rating, Cocklebur",[5]; [18],10
same,"Plant response rating, Cocklebur",[5]; [12],80
same,"Plant response rating, Cocklebur",[5]; [13],90
same,"Plant response rating, Cocklebur",[5]; [14],95
same,"Plant response rating, Cocklebur",[5]; [15],0
same,"Plant response rating, Cocklebur",[5]; [16],0
same,"Plant response rating, Cocklebur",[5]; [17],0
same,"Plant response rating, Corn",corn (Zea mays); [18],0
same,"Plant response rating, Corn",corn (Zea mays); [12],20
same,"Plant response rating, Corn",corn (Zea mays); [13],25
same,"Plant response rating, Corn",corn (Zea mays); [14],45
same,"Plant response rating, Corn",corn (Zea mays); [15],0
same,"Plant response rating, Corn",corn (Zea mays); [16],0
same,"Plant response rating, Corn",corn (Zea mays); [17],0
same,"Plant response rating, Morningglory",[6]; [12],70
same,"Plant response rating, Morningglory",[6]; [13],75
same,"Plant response rating, Morningglory",[6]; [14],75
same,"Plant response rating, Morningglory",[6]; [15],0
same,"Plant response rating, Morningglory",[6]; [16],0
same,"Plant response rating, Morningglory",[6]; [17],0
same,"Plant response rating, Ragweed",[7]; [11],70
same,"Plant response rating, Ragweed",[7]; [12],75
same,"Plant response rating, Ragweed",[7]; [13],80
same,"Plant response rating, Ragweed",[7]; [14],80
same,"Plant response rating, Ragweed",[7]; [15],65
same,"Plant response rating, Ragweed",[7]; [16],65
same,"Plant response rating, Ragweed",[7]; [17],70
same,"Plant response rating, Soybean",soybean (Glycine max); [11],75
same,"Plant response rating, Soybean",soybean (Glycine max); [12],75
same,"Plant response rating, Soybean",soybean (Glycine max); [13],85
same,"Plant response rating, Soybean",soybean (Glycine max); [14],85
same,"Plant response rating, Soybean",soybean (Glycine max); [15],0
same,"Plant response rating, Soybean",soybean (Glycine max); [16],0
same,"Plant response rating, Soybean",soybean (Glycine max); [17],5
same,"Plant response rating, Flood, Barnyardgrass",[8],10
same,"Plant response rating, Barnyardgrass",[8]; [19],0
same,"Plant response rating, Barnyardgrass",[8]; [20],0
same,"Plant response rating, Barnyardgrass",[8]; [21],0
same,"Plant response rating, Flood, Ducksalad",[9],40
same,"Plant response rating, Ducksalad",[9]; [19],0
same,"Plant response rating, Ducksalad",[9]; [20],20
same,"Plant response rating, Ducksalad",[9]; [21],40
same,"Plant response rating, Flood, Rice",rice (Oryza sativa),10
same,"Plant response rating, Rice",rice (Oryza sativa); [19],0
same,"Plant response rating, Rice",rice (Oryza sativa); [20],0
same,"Plant response rating, Rice",rice (Oryza sativa); [21],0
same,"Plant response rating, Flood, Sedge, Umbrella",[10],0
same,"Plant response rating, Sedge, Umbrella",[10]; [19],0
same,"Plant response rating, Sedge, Umbrella",[10]; [20],0
same,"Plant response rating, Sedge, Umbrella",[10]; [21],0
O=C1CCCC(O)=C1C(=O)c1cnc(-c2cccc(Cl)c2)n(-c2ccc(Cl)cc2)c1=O [Compound 64],"Plant response rating, Ryegrass, Italian",[1]; [11],0
same,"Plant response rating, Ryegrass, Italian",[1]; [12],0
same,"Plant response rating, Ryegrass, Italian",[1]; [13],0
same,"Plant response rating, Ryegrass, Italian",[1]; [14],30
same,"Plant response rating, Ryegrass, Italian",[1]; [15],0
same,"Plant response rating, Ryegrass, Italian",[1]; [16],0
same,"Plant response rating, Ryegrass, Italian",[1]; [17],0
same,"Plant response rating, Surinam Grass",[2]; [11],85
same,"Plant response rating, Surinam Grass",[2]; [12],95
same,"Plant response rating, Surinam Grass",[2]; [13],98
same,"Plant response rating, Surinam Grass",[2]; [14],98
same,"Plant response rating, Surinam Grass",[2]; [15],0
same,"Plant response rating, Surinam Grass",[2]; [16],85
same,"Plant response rating, Surinam Grass",[2]; [17],85
same,"Plant response rating, Bermudagrass",[3]; [11],95
same,"Plant response rating, Bermudagrass",[3]; [18],98
same,"Plant response rating, Bermudagrass",[3]; [12],95
same,"Plant response rating, Bermudagrass",[3]; [13],98
same,"Plant response rating, Bermudagrass",[3]; [14],98
same,"Plant response rating, Bermudagrass",[3]; [15],50
same,"Plant response rating, Bermudagrass",[3]; [16],85
same,"Plant response rating, Bermudagrass",[3]; [17],98
same,"Plant response rating, Blackgrass",[4]; [11],0
same,"Plant response rating, Blackgrass",[4]; [18],0
same,"Plant response rating, Blackgrass",[4]; [12],0
same,"Plant response rating, Blackgrass",[4]; [13],5
same,"Plant response rating, Blackgrass",[4]; [14],15
same,"Plant response rating, Blackgrass",[4]; [15],0
same,"Plant response rating, Blackgrass",[4]; [16],0
same,"Plant response rating, Blackgrass",[4]; [17],0
same,"Plant response rating, Cocklebur",[5]; [11],90
same,"Plant response rating, Cocklebur",[5]; [18],70
same,"Plant response rating, Cocklebur",[5]; [12],95
same,"Plant response rating, Cocklebur",[5]; [13],95
same,"Plant response rating, Cocklebur",[5]; [14],95
same,"Plant response rating, Cocklebur",[5]; [15],0
same,"Plant response rating, Cocklebur",[5]; [16],0
same,"Plant response rating, Cocklebur",[5]; [17],10
same,"Plant response rating, Corn",corn (Zea mays); [11],80
same,"Plant response rating, Corn",corn (Zea mays); [18],0
same,"Plant response rating, Corn",corn (Zea mays); [12],85
same,"Plant response rating, Corn",corn (Zea mays); [13],85
same,"Plant response rating, Corn",corn (Zea mays); [14],90
same,"Plant response rating, Corn",corn (Zea mays); [15],0
same,"Plant response rating, Corn",corn (Zea mays); [16],0
same,"Plant response rating, Corn",corn (Zea mays); [17],0
same,"Plant response rating, Morningglory",[6]; [11],80
same,"Plant response rating, Morningglory",[6]; [12],80
same,"Plant response rating, Morningglory",[6]; [13],85
same,"Plant response rating, Morningglory",[6]; [14],90
same,"Plant response rating, Morningglory",[6]; [15],0
same,"Plant response rating, Morningglory",[6]; [16],0
same,"Plant response rating, Morningglory",[6]; [17],0
same,"Plant response rating, Ragweed",[7]; [11],85
same,"Plant response rating, Ragweed",[7]; [12],85
same,"Plant response rating, Ragweed",[7]; [13],90
same,"Plant response rating, Ragweed",[7]; [14],90
same,"Plant response rating, Ragweed",[7]; [15],0
same,"Plant response rating, Ragweed",[7]; [16],50
same,"Plant response rating, Ragweed",[7]; [17],75
same,"Plant response rating, Soybean",soybean (Glycine max); [11],85
same,"Plant response rating, Soybean",soybean (Glycine max); [12],98
same,"Plant response rating, Soybean",soybean (Glycine max); [13],98
same,"Plant response rating, Soybean",soybean (Glycine max); [14],98
same,"Plant response rating, Flood, Barnyardgrass",[8],0
same,"Plant response rating, Barnyardgrass",[8]; [19],0
same,"Plant response rating, Barnyardgrass",[8]; [20],0
same,"Plant response rating, Barnyardgrass",[8]; [21],0
same,"Plant response rating, Flood, Ducksalad",[9],60
same,"Plant response rating, Ducksalad",[9]; [19],30
same,"Plant response rating, Ducksalad",[9]; [20],30
same,"Plant response rating, Ducksalad",[9]; [21],50
same,"Plant response rating, Flood, Rice",rice (Oryza sativa),0
same,"Plant response rating, Rice",rice (Oryza sativa); [19],0
same,"Plant response rating, Rice",rice (Oryza sativa); [20],0
same,"Plant response rating, Rice",rice (Oryza sativa); [21],0
same,"Plant response rating, Flood, Sedge, Umbrella",[10],40
same,"Plant response rating, Sedge, Umbrella",[10]; [19],0
same,"Plant response rating, Sedge, Umbrella",[10]; [20],0
same,"Plant response rating, Sedge, Umbrella",[10]; [21],0
